In BindingDB's records for doi:10.1016/s0014-5793(96)01132-5 (Cnrs Upr 9023, 1996):
“And” between values parts separate entries of the source, which are not always exact repeats. Equal entries are not always repeated. Structures can show the parent of a compound that is named as a salt.

Each compound was assayed against 5-hydroxytryptamine receptor 4 (Mus musculus, UniProt P97288).
5-hydroxytryptamine receptor 4, sequence (P97288 whole entry): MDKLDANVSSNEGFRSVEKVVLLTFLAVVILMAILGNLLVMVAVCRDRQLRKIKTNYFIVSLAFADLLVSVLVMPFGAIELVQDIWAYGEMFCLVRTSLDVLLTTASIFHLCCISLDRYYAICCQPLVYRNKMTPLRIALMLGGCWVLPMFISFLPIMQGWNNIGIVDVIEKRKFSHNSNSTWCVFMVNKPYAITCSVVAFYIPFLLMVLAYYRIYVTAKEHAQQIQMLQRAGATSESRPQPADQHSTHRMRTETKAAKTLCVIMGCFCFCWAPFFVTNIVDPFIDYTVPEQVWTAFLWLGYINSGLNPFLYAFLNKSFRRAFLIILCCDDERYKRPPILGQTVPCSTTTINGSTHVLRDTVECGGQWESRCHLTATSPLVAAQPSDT
Work on COc1ccc2[nH]cc(CCN)c2c1 [tryptamine, 5-Methoxy] yielded a Ki of 229 nM. COc1cc(N)c(Cl)cc1C(=O)NC1CCN2CCCC1C2 (stereo not given) [NSC_3035240] showed a Ki of 132 nM. COc1cc(N)c(Cl)cc1C(=O)NC1CCN(CCCOc2ccc(F)cc2)CC1OC (stereo not given) [4-amino-5-chloro-N-(1-(3-(4-fluorophenoxy)propyl)-3-methoxypiperidin-4-yl)-2-methoxybenzamide] showed a Ki of 32.4 nM. With CN1C2CCC1CC(OC(=O)c1c[nH]c3ccccc13)C2 (stereo not given) the Ki was 87.1 nM. With NCCc1c[nH]c2ccc(C(N)=O)cc12 [[3H]-5-carboxamidotryptamine] the Ki was > 10000 nM and 9770 nM. Compound Cn1cc(C(=O)OCC2CCN(CCNS(C)(=O)=O)CC2)c2ccccc21 [GR 113808] has a Ki of 0.2 nM. In the case of CC(C)n1c(=O)n(C(=O)NC2C[C@H]3CC[C@@H](C2)N3C)c2ccccc21 (stereo not given in full) [BIMU 8], the Ki is reported as 40.7 nM. COc1cc(N)c(Cl)cc1C(=O)NC1CCN(CCCC(=O)N2CCC(N(C)C)CC2)CC1OC (stereo not given) [4-Amino-5-chloro-N-(1-{4-[4-(dimethylamino)-1-piperidinyl]-4-oxobutyl}-3-methoxy-4-piperidinyl)-2-methoxybenzamide] was tested, and the Ki was 2.88 nM. Compound CCn1c(=O)n(C(=O)NC2CC3CCC(C2)N3C)c2ccccc21 (stereo not given) [BIMU 1] has a Ki of 28.8 nM. In the case of CCN(CC)CCNC(=O)c1cc(Cl)c(N)cc1OC [4-amino-5-chloro-N-[2-(diethylamino)ethyl]-2-methoxy-benzamide;hydrochloride], the Ki is reported as 891 nM. For COc1ccc2[nH]c(=O)n(C(=O)OC3CC4CCC(C3)N4C)c2c1 (stereo not given) [DAU 6285], the Ki was 55 nM. NCCc1c[nH]c2ccc(O)cc12 [[3H]-5-HT] showed a Ki of 56.2 nM. In the case of COc1cc(N)c(Cl)cc1C(=O)NC1CN2CCC1CC2 (stereo not given) [ZACOPRIDE,R], the Ki is reported as 191 nM. Compound COc1[nH]c2ccc(F)cc2c1C(=O)OCC1CCN(CCNS(C)(=O)=O)CC1 [GR-125487] has a Ki of 0.02 nM. Work on CCN(CC)CCOC(=O)c1cc(Cl)c(N)cc1OC [SDZ-205557] yielded a Ki of 7.76 nM.
